Results taken from patent publication US4400517A, “Phosphoric esters derived from 1,2,4-triazole having an insecticidal, nematocidal and acaricidal action, and their preparation” (priority 1976, dated 1983).
Read-outs that look alike come from different tables or passages of the source.

What was measured:
[1] = system: Pieris brassicae; experiment: Biological activity on Pieris brassicae (Lepidoptera); format: in vivo; settings: 48 h
Procedure: (2) Biological activity on Pieris brassicae (Lepidotera)
Cut-off cauliflower leaves were sprinkled with an aqueous dispersion of the products under examination (see TABLE 5).
After drying, the leaves were infested with 5-day old larvae. The percentage of mortality of the larvae (untreated leaves=0) was determined after 48 hours from treatment.

[2] = system: Tetranychus urticae; experiment: Biological activity on adults of Tetranychus urticae (Acari); format: in vivo
Procedure: (5) Biological activity on adults of Tetranychus urticae (Acari)
Discs of bean leaves were infested with adult acari and then sprinkled with an aqueous dispersion of the products under examination (see Tables 4 and 5).
The mortality percentage was determined after 24 hours from treatment (untreated leaf discs, mortality=0).

[3] = system: Hilemyia brassicae; experiment: Biological activity on Hilemyia brassicae (Diptera); format: in vivo; settings: Table 4
Procedure: (9) Biological activity on Hilemyia brassicae (Diptera)
Samples of soil were treated by uniform mixing with an aqueous dispersion of the products under examination (see Tables 4 and 5). The soil was then divided into two pots and in each of these 4 small radish plants were transplanted. The plants were subsequently infected by putting to the soil 50 Diptera eggs in the middle of the surface of the pots.
The results were recorded 10 days after treatment by extracting the plants from the soil and by counting the number of larvae present on the roots and on the surrounding soil.
The insecticidal activity was expressed as percentage of reduction of the infestation in comparison with the witness plants (plants transplanted into untreated soil, activity=0).

[4] = system: Meloidogyne icognita; experiment: Biological activity on Meloidogyne icognita (Nematoda); format: in vivo; settings: 20 ppm; Table 4
Procedure: (8) Biological activity on Meloidogyne icognita (Nematoda)
A 1:1 mixture of field soil and sand, infested with newborne larvae and eggs of Nematoda, were treated, by uniform admixing, with an aqueous dispersion of the products under examination (see Tables 4 and 5). The soil was then distributed into plastic pots, and after 5 days in each pot there were planted 5 small tomato plants about 20 cm high.
The results were recorded 21 days after the transplanting.
The nematocidal activity was expressed as the percentage reduction of infestation with respect to the witness (small plants transplanted into a non-treated soil, activity=0).

[5] = system: warm-blooded animals; experiment: Toxicity toward warm-blooded animals / mammals; format: in vivo
[6] = system: Culex pipiens; experiment: Biological activity on Culex pipiens larvae (Diptera); format: in vivo
Procedure: (4) Biological activity on Culex pipiens (Diptera)
Into glasses containing an aqueous dispersion of the products under examination (see Tables 4 and 5) there were introduced mosquito larvae of third and fourth age.
The mortality percentage of the larvae (glasses containing pure water=0) was determined after 24 hours from treatment.

[7] = system: Spodoptera littoralis; experiment: Biological activity on Spodoptera littoralis (Lepidoptera); format: in vivo
Procedure: (7) Biological activity on Spodoptera littoralis (Lepidoptera)
Cut tobacco leaves were sprinkled with an aqueous dispersion of the products under examination (see Tables 4 and 5).
After drying, the leaves were infested with 5-day old larvae.
The percentage of mortality of the larvae was determined after 48 hours from treatment (untreated leaves, mortality=0).

[8] = system: Locusta M.; experiment: Activity on Locusta M.; settings: in vivo
[9] = system: Blatta orientalis; experiment: Biological activity on Blatta orientalis (Ortoptera); format: in vivo; settings: for % ge of activity, Blatta o.: Table 4, 2880 min; for mortality at 0.01 g/m2 / mortality at 1 g/m2: Blatta orientalis, 48 h, read-out: Activity (mortality class), Blatta O.
Procedure: (10) Biological activity on Blatta orientalis (Ortoptera)
The bottom and walls of glass crystallizers were treated uniformly with an acetonic solution of the products under examination (see Tables 4 and 5). After evaporation of the solvent, into each crystallizer were introduced ten 80-100 days old neanides. The crystallizers were then closed with a metal net cover. After 24 hours from the start of the treatment, the insects were transferred to similar untreated crystallizers, and there were appropriately nourished in conventional manner.
The percentage of mortality (untreated insects=0) was determined after 48 hours from the start of the treatment.

[10] = system: Leptinotarsa decemlineata; experiment: Biological activity on Leptinotarsa decemlineata (Coleoptera); format: in vivo
Procedure: (3) Biological activity on Leptinotarsa decemlineata (Coleoptera)
Small potato plants grown in pots were infested with 4-day old larvae, and were then sprinkled with an aqueous dispersion of the products under examination (see Tables 4 and 5).
The mortality percentage (untreated small plants=0) was determined after 48 hours from treatment.

[11] = system: Macrosiphum euphorbiae; experiment: Biological activity on Macrosiphum euphorbiae (Aphides); format: in vivo; settings: potato plants, 24 h
Procedure: (1) Biological activity on Macrosiphum euphorbiae (Aphides)
Potato plants grown in pots were infested with adult females of aphides and, after several hours, were sprinked with an aqueous dispersion of the products under examination (see TABLE 5).
The percentage of mortality was assessed after 24 hours after the treatment (untreated plants=0).

[12] = system: Tetranychus urticae; experiment: Biological activity on Tetranychus urticae eggs (Acari); format: in vivo; settings: bean leaf discs, 144 h
Procedure: (6) Biological activity on Tetranychus urticae (Acari)
Small discs of bean leaves were infested with Acari eggs and were then sprinkled with an aqueous dispersion of the products under examination (see Table 5).
The mortality percentage was determined after 6 days from treatment (untreated leaf discs, mortality=0).

[13] = Toxicity on albino rats by oral administration; settings: rat, in vivo
[14] = 0.01%o, Table 5, read-out: Activity (mortality class), Pieris B.
[15] = 24 h, read-out: Activity (mortality class), Tetranychus U. (adults)
[16] = 24 h, read-out: Activity (mortality class), Culex P. (larvae)
[17] = 48 h, read-out: Activity (mortality class), Spodoptera L.
[18] = 48 h, read-out: Activity (mortality class), Leptinotarsa D.
[19] = 1%o, Table 5, read-out: Activity (mortality class), Pieris B.
[20] = 24 h, 0.01%o, Table 5, read-out: Activity (mortality class), Tetranychus U. (adults)
[21] = 24 h, 1%o, Table 5, read-out: Activity (mortality class), Tetranychus U. (adults)
[22] = 24 h, 2 ppm, Table 5, read-out: Activity (mortality class), Culex P. (larvae)
[23] = 48 h, 1%o, Table 5, read-out: Activity (mortality class), Spodoptera L.
[24] = 48 h, 0.05%o, Table 5, read-out: Activity (mortality class), Leptinotarsa D.
[25] = 48 h, 1%o, Table 5, read-out: Activity (mortality class), Leptinotarsa D.
[26] = read-out: Activity (mortality class), Pieris B.
[27] = 24 h, 0.02 ppm, Table 5, read-out: Activity (mortality class), Culex P. (larvae)

Row | Compound | mortality at 0.001 % [1, 14] [%] | mortality at 0.001 % [2, 15] [%] | mortality at 0.02 ppm [6, 16] [%] | mortality at 0.005 % [7, 17] [%] | Activity (mortality class), Locusta M. [8] | mortality at 0.005 % [10, 18] [%] | Activity (mortality class), Macrosiphum E. [11] | mortality at 0.1 % [1, 19] [%] | mortality at 0.001 % [2, 20] [%] | mortality at 0.1 % [2, 21] [%] | mortality at 2 ppm [6, 22] [%] | mortality at 0.1 % [7, 23] [%] | Activity (mortality class), Tetranychus U. (eggs) [12] | mortality at 1 g/m2 ([9]; 1 g/m^2, Table 5) [%] | mortality at 0.005 % [10, 24] [%] | mortality at 0.1 % [10, 25] [%] | mortality at 0.1 % [2, 15] [%] | mortality at 0.1 % [7, 17] [%] | mortality at 0.1 % [10, 18] [%] | LD50 [13] [mg/kg] | also measured
1 | CCOP(=S)(OCC)Oc1nc(-c2ccccc2)nn1C [M 8172, 0,0-diethyl-0-[1-methyl-3-phenyl-1,2,4-triazolyl(5)]-thiophosphate, reference compound] | 0 to 9 | 70 to 99 | 0 to 9 | 10 to 69 | + (70-99% of mort.) | 10 to 69 | – | – | – | – | – | – | – | – | – | – | – | – | – | – | mortality at 0.001 % ([2]; 24 h, 0,01%o, Table 4, read-out: % ge of activity, Tetranycus u. (ad.)): 96%; mortality at 0.0005 % ([2]; 24 h, 0,005%o, Table 4, read-out: % ge of activity, Tetranycus u. (ad.)): 76%; % ge of activity, Hylemyia b. ([3]; 2 ppm): 48%; % ge of activity, Hylemyia b. ([3]; 10 ppm): 98%; % ge of activity, Meloidogyne i. [4]: 40%; toxicity in words [5]: low toxicity towards mammals; mortality at 0.02 ppm ([6]; 24 h, 0,02 ppm, Table 4, read-out: % ge of activity, Culex p.): 0%; mortality at 0.2 ppm ([6]; 24 h, 0,2 ppm, Table 4, read-out: % ge of activity, Culex p.): 100%; mortality at 0.01 % ([7]; 48 h, 0,1%o, Table 4, read-out: % ge of activity, Spodoptera l.): 100%; mortality at 0.005 % ([7]; 48 h, 0,05%o, Table 4, read-out: % ge of activity, Spodoptera l.): 15%; % ge of activity, Blatta o. ([9]; 0,01 g/m^2): 20%; % ge of activity, Blatta o. ([9]; 0,1 g/m^2): 100%; mortality at 0.01 g/m2 ([9]; 0,01 g/m^2, Table 5): 10 to 69%; mortality at 0.01 % ([10]; 48 h, 0,1%o, Table 4, read-out: % ge of activity, Leptinotarsa d.): 92%; mortality at 0.005 % ([10]; 48 h, 0,05%o, Table 4, read-out: % ge of activity, Leptinotarsa d.): 10%
2 | CCCOP(=S)(OCCC)Oc1nc(C=C(Cl)Cl)nn1C [M 8448] | 10 to 69 | – | – | – | ± (10-69% of mort.) | – | ++ (100% of mortality) | 100 | 100 | 100 | 100 | 100 | ++ (100% of mortality) | 100 | 100 | 100 | – | – | – | – | –
3 | CCCCn1nc(C=C(Cl)Cl)nc1OP(=S)(OCCC)OCCC [M 8475] | – | – | – | – | ± (10-69% of mort.) | – | ± (10-69% of mort.) | – | – | – | – | – | ++ (100% of mortality) | – | – | – | 10 to 69 | 10 to 69 | 100 | – | mortality at 0.1 % [1, 26]: 100%; mortality at 2 ppm [6, 16]: 100%; mortality at 1 g/m2 [9]: 0 to 9%
4 | CC=C(Br)c1nc(OP(=S)(OCC)OCC)n(C)n1 [M 8549] | 10 to 69 | – | – | – | – | – | – | 100 | 10 to 69 | 100 | 100 | 100 | – | 100 | 100 | 100 | – | – | – | 1000 | –
5 | CCOP(=S)(OCC)Oc1nc(C(C)=C(Cl)Cl)nn1C [M 8550] | 100 | – | – | – | – | – | – | 100 | 10 to 69 | 100 | 100 | 100 | – | 100 | 100 | 100 | – | – | – | 1700 | mortality at 0.02 ppm [6, 27]: 70 to 99%; mortality at 0.01 g/m2 ([9]; 0,01 g/m^2, Table 5): 10 to 69%
6 | CCOP(=S)(OCC)Oc1nc(C(Cl)=C(Cl)Cl)nn1C [M 8560] | – | – | – | 70 to 99 | – | 100 | – | – | 100 | – | 100 | – | – | – | – | – | 100 | 100 | 100 | 1200 | mortality at 0.001 % [1, 26]: 70 to 99%; mortality at 0.1 % [1, 26]: 100%; mortality at 0.02 ppm [6, 27]: 10 to 69%; mortality at 1 g/m2 [9]: 100%
7 | CC=C(Cl)c1nc(OP(=S)(OCC)OCC)n(C)n1 [M 8634] | – | – | – | – | – | – | – | 100 | 10 to 69 | 100 | 100 | 100 | – | 100 | 100 | 100 | – | – | – | 1400 | mortality at 0.005 % ([7]; 48 h, 0.05%o, Table 5, read-out: Activity (mortality class), Spodoptera L.): 10 to 69%; mortality at 0.01 g/m2 ([9]; 0,01 g/m^2, Table 5): 10 to 69%
8 | C=CCn1nc(C=C(Cl)Cl)nc1OP(=S)(OCC)OCC [M 8764] | – | 100 | 100 | 100 | ++ (100% of mortality) | 100 | ++ (100% of mortality) | 100 | – | – | – | – | ++ (100% of mortality) | 100 | – | – | 100 | 100 | 100 | – | mortality at 2 ppm [6, 16]: 100%
9 | CCOP(=S)(OCC)Oc1nc(C(C)=C(Cl)Cl)nn1CC [M 9141] | – | 10 to 69 | 70 to 99 | – | ++ (100% of mortality) | 100 | ++ (100% of mortality) | – | – | – | – | – | ++ (100% of mortality) | – | – | – | 100 | 100 | 100 | – | mortality at 0.1 % [1, 26]: 100%; mortality at 2 ppm [6, 16]: 100%; mortality at 1 g/m2 [9]: 100%
10 | CCOP(=S)(OCC)Oc1nc(Cl)n(C(C)C)n1 [Miral®, Diethyl-(1-isopropyl-5-chloro-1,2,4-triazole-3-yl) phosphoro-thionate, reference compound] | – | – | – | – | – | – | – | – | – | – | – | – | – | – | – | – | – | – | – | 60 | –
